Results on two molecules are retold here after patent publication US20090060871A1, “ADMINISTRATION OF AGONIST-ANTAGONIST IN OPIOID-DEPENDENT PATIENTS” (priority 2006, published 2009).

SMILES strings stand for the structures. Structures can show the parent of a compound that is named as a salt.

The conditions of data set [1]: in vivo; cited from earlier work.
For data set [2] the following is noted: water; cited from earlier work.
The subject of data set [3] is opioid-dependent patient. The data set can be described thus: Clinical case reports: nalbuphine 2 cc IM twice a day in opioid-dependent patients (Examples 1A-7A). The data set is classed as in vivo, human.
The subject of data set [4] is HIV-infected, opioid-dependent patient. The data set can be described thus: Average adherence to ARV regimen during nalbuphine administration. The data set is classed as in vivo, human. On the procedure: Compliance with a treatment regimen and in particular to an ARV regimen is determined using an “average adherence” value calculated using the formula: […]
where A is the number of tablets or gel capsules required by the protocol to be administered to a patient over four weeks; and B is the number of tablets or gel capsules prescribed but actually not taken by a patient over the same period of time.

Data set [5] deals with IDU (injectable drug users). Put plainly: Pilot study of Nalbuphine administration to IDU (injectable drug users), Example 8A. Format: in vivo, human. The source says: A pilot study was initiated to evaluate treatment with Nalbuphine (agonist-antagonist) in the context of HIV prevention, treatment and care interventions. The first pilot study of the effects of Nalbuphine administration to IDU (injectable drug users) started at the 8th of August 2006 in Moscow. It is still being conducted on outpatient basis.
Duration of individual treatment varied from patient to patient (from 10 days to 180 days) depending on patient's condition, life-style, substance abuse history, etc. The frequency of administration varied from 20 mg per patient bid (initially) to 20 mg per patient per week (after 30 days).
The objective of the study is to compare this method with the other methods of drug treatment typical for Russia, and to measure the effects of out-patient Nalbuphine administration using following criteria:
The clinical trial included 19 clients, all with simultaneous codeine addiction, 7 patients living with AIDS, 4 being multiple substance users. In all cases, the patient was a difficult case (5-11 years of heroin abuse). 3 of the patients had very high (3-5 g a day) doses of heroin abuse.
All patients were between 18-50 years old, diagnosed with opiate abuse (in some cases in combination with other substances). They were admitted to the study after three days of opiate abstinence.
Patients with psychiatric, oncological, diabetic conditions, chronic kidney illnesses, and pregnancy were excluded from the study.

Data set [6] concerns opioid-dependent patients. The data set can be described thus: Study of 28 patients who received Nalbuphine for up to 6 months, Example 9A. The data set is classed as in vivo, human. The text has this: The results of a study of 28 patients who received Nalbuphine for up to 6 months are as follows.
[7] abbreviates: Example 1A, M., 2 cc IM twice a day for 48 days.
Where [8] appears, read: Example 3A, N., 2 cc IM twice a day for 30 days.

`Oc1ccc2c3c1O[C@H]1[C@@H](O)CCC4(O)C(C2)N(CC2CCC2)CCC314` (stereo partly drawn) [nalbuphine hydrochloride, 17-(cyclobutylmethyl)-4,5α-epoxymorphinan-3,6α-14-triol hydrochloride]: in data set [1], the plasma half life entry is recorded as “about five”. In addition, the solubility result in data set [2] is listed as “Water-soluble”.

Consider `Oc1ccc2c3c1OC1[C@@H](O)CCC4(O)[C@@H](C2)N(CC2CCC2)CC[C@]314` (stereo partly drawn) [nalbuphine, 17-(cyclobutylmethyl)-4,5α-epoxymorphinane-3,6α-14-triol], for which the “aggravation of opportunistic infections or HCV” value is listed as “No aggravation” in data set [3] (setting [7]); “No aggravation” in data set [3] (Example 3A, N.); “No aggravation” in data set [3] (Example 5A, V.); “No aggravation” in data set [3] (Example 6A, L.). The craving result in data set [3] (setting [7]) is listed as “profound decrease in craving”. Further, in data set [3] (Example 2A, D., 2 cc IM twice a day for 52 days), the “desire for drug use” value is on record as “denies desire for drug use”. Moreover, the cravings for drugs result in data set [3] (setting [8]) was “cravings for drugs decreased”. Also, the “pain (chronic osteomyelitis)” value in data set [3] (setting [8]) was “pain relief”. Further, the alcohol problems result in data set [3] (Example 5A, V.) was “problems with alcohol persist”. The drug cravings entry in data set [3] (Example 6A, L.) is given as “drug cravings decreased”. In addition, the attempts of suicide result in data set [3] (Example 6A, L., multiple earlier attempts) is reported as “No attempts of suicide”. Also, the “Average adherence to ART during April” value came to 100% in data set [4] (Example 3A, N., 98% in January-March 2006 before nalbuphine); 97% in data set [4] (Example 4A, S., male, Stocrin+Combivir, 76% in January-March 2006 before nalbuphine); 95% in data set [4] (Example 5A, V., Stocrin and Combivir, 70% in January-March 2006 before nalbuphine); 93% in data set [4] (Example 6A, L., Efavirenz and Combivir, 68% in January-March 2006 before nalbuphine); 93% in data set [4] (Example 7A, S., female, 98% in January-March 2006 before nalbuphine). Moreover, in data set [5] (19 clients), the “side effects or drug-drug interactions” value is listed as “No side effects or drug-drug interactions were observed”. Moreover, in data set [5] (all HIV-positive patients), the “involvement/adherence to HIV treatments” value is “higher involvement/adherence”. Besides, the quality of life result is given as “improved quality of life” in data set [5] (all patients) and “improved” in data set [6] (28 patients). Also, the “patients who stopped heroin and codeine consumption” value in data set [5] (of 19 clients, 20 mg bid initially to 20 mg per week, 10 to 180 days, outpatient) was 18 patients. Also, the “correlation between administrated dose and heroin consumption” value in data set [6] (28 patients) is listed as “inverse correlation”. Besides, the “overdose, side effects or new infections associated with injectable drugs” value in data set [6] (28 patients) is “no observed instances of overdose, side effects or new infections”. In addition, in data set [6] (28 patients, up to 6 months), the “people staying clean (periodic urine tests for opiates) while on therapy” value was “two thirds”. Further, in data set [6] (28 patients, up to 6 months), the “reduction of total heroin and other opiate consumption” value is on record as “up to 75%”. The cravings for drug result in data set [6] (all patients) is reported as “clear reduction of cravings for drug”. Moreover, the “compliance (adherence) to ARVT” value in data set [6] (patients already receiving ARVT) is “nearly perfect compliance (adherence)”.
